Reference: US12419305B2, “Antimicrobial compositions” (Firmenich SA, priority 2018, dated 2025)
Like-named read-outs stand apart in the source and are kept apart here.

Experiments:
[1] = test system: C. xerosis ATCC 373; test: BCT test (bacterial contact time), 120 s, log reduction / effect fraction; CI by Compusyn; type: cell-based; conditions: Corynebacterium xerosis, ATCC373, 2 min, contact 120 s, 25% EtOH; for log reduction at 0.25 % strength: dose 0.25% w/v; for log reduction at 0.3 % strength: dose 0.3% w/v
In short: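 C. xerosis cells grown in BHI-TW80 at 37 °C to OD600 1.6 were exposed to ethanolic perfume compositions for 120 s. Viable counts (log CFU) came from serial dilution and OD600 growth after 37 °C incubation, giving log reduction versus ethanol control. CI was computed from concentrations and effect fractions, with <0.9 taken as synergy.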

[2] = test system: Pseudomonas aeruginosa ATCC 15442; test: BCT test (bacterial contact time), 60 s, log reduction / effect fraction; CI by Compusyn; type: cell-based; conditions: Pseudomonas aeruginosa, ATCC15442, 1 min, BCT 60 s, in 25% EtOH; for log reduction at 0.025 % strength: Dose 0.025 % w/v; for log reduction at 0.05 % strength: Dose 0.05 % w/v; for log reduction at 0.075 % strength: Dose 0.075 % w/v; for log reduction at 0.1 % strength: Dose 0.1 % w/v; for log reduction at 0.125 % strength: Dose 0.125 % w/v
In short: (§1)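 Read-out: log CFU from turbidity (OD600) of serially diluted wells after 37° C, 180 rpm growth; log reduction relative to ethanol-only control. Cells at ~1×10^8/mL met ethanolic test compositions 1:1 for the listed contact time. CI from concentrations and effect fractions; <0.9 synergy, 0.9–1.0 additive, >1.0 antagonism.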

[3] = test system: Salmonella enterica ATCC 10708; test: as above; type: cell-based; conditions: Salmonella enterica, ATCC10708, 1 min, BCT 60 s, in 25% EtOH; for log reduction at 0.04 % strength: Dose 0.04 % w/v; for log reduction at 0.05 % strength: Dose 0.05 % w/v; for log reduction at 0.05 % strength / log reduction at 0.1 % strength: read-out: Log reduction
In short: as §1

[4] = test system: E. coli ATCC 10536; test: BCT test (bacterial contact time), 45 s, log reduction / effect fraction; CI by Compusyn; type: cell-based, Escherichia coli
In short: as §1

[5] = test system: S. haemolyticus 114126; test: BCT test (bacterial contact time), 120 s, log reduction / effect fraction; CI by Compusyn; type: cell-based; conditions: Staphylococcus haemolyticus, 114126, 2 min, contact 120 s, 25% EtOH; for log reduction at 0.1 % strength: dose 0.1% w/v; for log reduction at 0.125 % strength: dose 0.125% w/v; for log reduction at 0.15 % strength: dose 0.15% w/v
In short: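 S. haemolyticus 114126 (skin isolate), grown to OD600 1-2 in BHI-TW80 and resuspended at 1-5×10^8 CFU/mL, was mixed 1:1 with ethanolic perfume compositions or ethanol alone for 45, 60 or 120 s. Viable counts came from serial-dilution regrowth (37 °C, turbidity OD600), giving log reduction versus ethanol control; CI was computed from concentration–effect fraction pairs.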

[6] = dose 0.4% w/v, read-out: Log reduction

CCC(C)(O)CCCC(C)C (stereo not shown) [Tetralinol, 3,7-Dimethyl-3-octanol]
log reduction at 0.05 % strength ([1]; dose 0.05% w/v): 0.1
log reduction at 0.2 % strength ([1]; dose 0.2% w/v, read-out: Log reduction): 5.7
log reduction at 0.25 % strength ([1]; read-out: Log reduction): 6.4
log reduction at 0.3 % strength ([1]; read-out: Log reduction): 6.5
log reduction at 0.025 % strength [2]: 1.2
log reduction at 0.05 % strength [2]: 3.2
log reduction at 0.075 % strength [2]: 3.9
log reduction at 0.1 % strength [2]: 7.1
log reduction at 0.125 % strength [2]: 7.1
log reduction at 0.04 % strength [3]: 5.3
log reduction at 0.05 % strength [3]: 6.2
log reduction at 0.02 % strength ([4]; Escherichia coli, ATCC10536, 45 s, dose 0.02 % w/v, 45 s, in 20% EtOH): 0.1
log reduction at 0.025 % strength ([4]; Escherichia coli, ATCC10536, 45 s, dose 0.025 % w/v, 45 s, in 20% EtOH): 0.6
log reduction at 0.025 % strength ([4]; Escherichia coli, ATCC10536, 45 s, dose 0.025% w/v, contact 45 s, 20% EtOH): 0.7
log reduction at 0.03 % strength ([4]; Escherichia coli, ATCC10536, 45 s, dose 0.030 % w/v, 45 s, in 20% EtOH): 1.4
log reduction at 0.03 % strength ([4]; Escherichia coli, ATCC10536, 45 s, dose 0.03% w/v, contact 45 s, 20% EtOH): 2
log reduction at 0.035 % strength ([4]; Escherichia coli, ATCC10536, 45 s, dose 0.035 % w/v, 45 s, in 20% EtOH): 5
log reduction at 0.035 % strength ([4]; Escherichia coli, ATCC10536, 45 s, dose 0.035% w/v, contact 45 s, 20% EtOH): 5.9
log reduction at 0.04 % strength ([4]; Escherichia coli, ATCC10536, 45 s, dose 0.04% w/v, contact 45 s, 20% EtOH): 7
Log reduction ([4]; dose 0.025 % w/v, 45 s, in 20% EtOH): 0.6
log reduction at 0.075 % strength ([5]; dose 0.075% w/v): 1.2
log reduction at 0.1 % strength [5]: 5
log reduction at 0.125 % strength [5]: 7.3
log reduction at 0.15 % strength [5]: 7.1

CC(C)=CCC/C(C)=C\CO [Nerol, (Z)-3,7-dimethyl-2,6-octadien-1-ol]
log reduction at 0.08 % strength ([1]; dose 0.08% w/v): -0.1
log reduction at 0.1 % strength ([1]; dose 0.1% w/v): 0.5
log reduction at 0.12 % strength ([1]; dose 0.12% w/v): 2.6
log reduction at 0.14 % strength ([1]; dose 0.14% w/v): 4.9
log reduction at 0.16 % strength ([1]; dose 0.16% w/v): 7.2
log reduction at 0.025 % strength [2]: 0.4
log reduction at 0.05 % strength [2]: 3.6
log reduction at 0.0625 % strength ([2]; Dose 0.0625 % w/v): 5.6
log reduction at 0.075 % strength [2]: 7.4
log reduction at 0.1 % strength [2]: 7.4
log reduction at 0.01 % strength ([3]; Dose 0.01 % w/v): 0
log reduction at 0.03 % strength ([3]; Dose 0.03 % w/v): 0.7
log reduction at 0.04 % strength [3]: 2.2
log reduction at 0.05 % strength [3]: 5.6
log reduction at 0.06 % strength ([3]; Dose 0.06 % w/v): 7.3
log reduction at 0.05 % strength ([4]; Escherichia coli, ATCC10536, 45 s, dose 0.050 % w/v, 45 s, in 20% EtOH): 1.1
log reduction at 0.05 % strength ([4]; Escherichia coli, ATCC10536, 45 s, dose 0.05% w/v, contact 45 s, 20% EtOH): 0.1
log reduction at 0.06 % strength ([4]; Escherichia coli, ATCC10536, 45 s, dose 0.060 % w/v, 45 s, in 20% EtOH): 3.2
log reduction at 0.06 % strength ([4]; Escherichia coli, ATCC10536, 45 s, dose 0.06% w/v, contact 45 s, 20% EtOH): 3.2
log reduction at 0.07 % strength ([4]; Escherichia coli, ATCC10536, 45 s, dose 0.070 % w/v, 45 s, in 20% EtOH): 6.7
log reduction at 0.07 % strength ([4]; Escherichia coli, ATCC10536, 45 s, dose 0.07% w/v, contact 45 s, 20% EtOH): 7
log reduction at 0.08 % strength ([4]; Escherichia coli, ATCC10536, 45 s, dose 0.080 % w/v, 45 s, in 20% EtOH): 7.3
log reduction at 0.08 % strength ([4]; Escherichia coli, ATCC10536, 45 s, dose 0.08% w/v, contact 45 s, 20% EtOH): 7.4
log reduction at 0.09 % strength ([4]; Escherichia coli, ATCC10536, 45 s, dose 0.090 % w/v, 45 s, in 20% EtOH): 7.3
log reduction at 0.09 % strength ([4]; Escherichia coli, ATCC10536, 45 s, dose 0.09% w/v, contact 45 s, 20% EtOH): 7.4
log reduction at 0.05 % strength ([5]; dose 0.05% w/v): 0.1
log reduction at 0.1 % strength [5]: 1.4
log reduction at 0.125 % strength [5]: 4
log reduction at 0.15 % strength [5]: 6.2
log reduction at 0.175 % strength ([5]; dose 0.175% w/v, read-out: Log reduction): 7.4

CC1=CCC(C(C)(C)O)CC1 (stereo not shown) [Terpineol Ord, 2-(4-Methylcyclohex-3-en-1-yl)propan-2-ol]
log reduction at 0.25 % strength ([1]; read-out: Log reduction): 2.9
log reduction at 0.3 % strength ([1]; read-out: Log reduction): 3.9
log reduction at 0.35 % strength ([1]; dose 0.35% w/v, read-out: Log reduction): 6
log reduction at 0.4 % strength [1, 6]: 6.4
log reduction at 0.125 % strength [2]: 4.4
log reduction at 0.135 % strength ([2]; Dose 0.135 % w/v): 4.3
log reduction at 0.15 % strength ([2]; Dose 0.15 % w/v): 6.6
log reduction at 0.2 % strength ([2]; Dose 0.2 % w/v, read-out: Log reduction): 7.6
log reduction at 0.1 % strength ([3]; Dose 0.1 % w/v): 0.8
log reduction at 0.1 % strength ([3]; Dose 0.10 % w/v): 5.4
log reduction at 0.1375 % strength ([3]; Dose 0.1375 % w/v): 7.7
log reduction at 0.15 % strength ([3]; Dose 0.15 % w/v): 7.7
log reduction at 0.1 % strength ([4]; Escherichia coli, ATCC10536, 45 s, dose 0.100 % w/v, 45 s, in 20% EtOH, read-out: Log reduction): 0.1
log reduction at 0.11 % strength ([4]; Escherichia coli, ATCC10536, 45 s, dose 0.110 % w/v, 45 s, in 20% EtOH): 0.3
log reduction at 0.125 % strength ([4]; Escherichia coli, ATCC10536, 45 s, dose 0.125 % w/v, 45 s, in 20% EtOH): 1.3
log reduction at 0.15 % strength ([4]; Escherichia coli, ATCC10536, 45 s, dose 0.150 % w/v, 45 s, in 20% EtOH): 3.8
log reduction at 0.2 % strength ([4]; Escherichia coli, ATCC10536, 45 s, dose 0.200 % w/v, 45 s, in 20% EtOH): 7.4
log reduction at 0.1 % strength [5]: -0.1
log reduction at 0.2 % strength ([5]; dose 0.2% w/v): 1.9
log reduction at 0.25 % strength ([5]; dose 0.25% w/v, read-out: Log reduction): 5.8
log reduction at 0.3 % strength ([5]; dose 0.3% w/v, read-out: Log reduction): 7.4
log reduction at 0.4 % strength [5, 6]: 7.4
